Source: patent publication EP1053750A1, “Use of proteasome-inhibitor for the induction of programmed cell death (apoptosis)” (Max-Planck-Gesellschaft zur Förderung der Wissenschaften …, priority 1999, dated 2000)
Peptide text beside a SMILES is read from it. * marks the point of attachment. Cbz = O=C(OCc1ccccc1)*; OtBu = CC(C)(C)O*

How the values were obtained:
[1] = test system: chorioallantoic membrane (CAM); assay: Chorioallantoic membrane (CAM) assay; format: in vivo, chick embryo; details: for %CAMs with non-perfused areas: Luconyl Blue injection, positive/total CAMs in parenthesis
Method: All experiments with chick embryos were performed in ovo. After aspiration of 2 ml of eggwhite from the pointed side of the egg, a window was cut into the eggshell on embryonic day 3 or 4 (E3, E4). The eggs were resealed with tape and further incubated until E9. […] Approximately 1 cm^2-pieces of the CAM were then cut out, washed in PBS and fixed in Carnoy's solution. After dehydration and embedding in paraffin, 8 µm sections were cut and stained with an anti-BrdU mouse monoclonal antibody (Boehringer Mannheim, Germany) according to the manufacturer's instructions. Counterstaining of the sections was performed with Gill's hematoxylin (Serva, Heidelberg, Germany). Sections were mounted using Aquamount (Merck, Darmstadt, Germany) and photos were taken with a Zeiss Axiophot microscope. […] Control pellets were prepared with an equal amount of Leupeptin or with DMSO as vehicle, respectively. To aid in the visualization of the vascular system, embryos and CAMs were then injected using pulled glass capillaries with 10% Luconyl Blue (BASF, Ludwigshafen, Germany) in PBS, and photographs were taken using a stereomicroscope with camera adapter.
In eight eggs the windows of the egg shells were enlarged under an operation microscope. After a peripheral incision in the CAM was made, the main artery was incised with a pair of ocular scissors, and a glass capillary (World Precision Instruments, Inc. Germany) pulled to the adequate diameter, was inserted and sealed with a drop of cyanoacrylate (Loctite®). Efflux was enabled by making another incision into a main draining vessel. The vascular system was flushed with up to 5 ml of prewarmed (37 -39°C) physiological saline (0.9% NaCI) under mechanically controlled pressure. […] After complete polymerization of the casting solution, the membranes were dissected and macerated in a solution of 5% potassium hydroxide (Fluka, Neu-Ulm, Germany) at 40°C for 1 - 2 days. The resulting corrosion casts of all specimens were freeze dried, mounted and sputter coated. Examination of the microvascular corrosion casts were carried out with a Stereoscan Mk-250 scanning electron microscope (Cambridge, England). Alternatively, in situ fixed CAM segments were cut out, processed for semi-thin sectioning and stained with methylene blue and Azur II. Selected specimens were trimmed for ultrathin sectioning, and counterstained with uranyl acetate and lead citrate.

HUE cells = assay: Apoptotic morphology (phase contrast, Hoechst 33342), HUE cells; format: cell-based, human; details: subconfluent HUE cells, 50 µM, 18 - 24 hours
Text: Phase contrast pictures are shown on the left, and identical areas which display the nuclear morphology after Hoechst staining are shown on the right. Arrowheads point at nuclei with apoptotic morphology. Scale bars are 50 µm.
Primary bovine aortic endothelial cells (BAE) were isolated from bovine pulmonary aorta according to the method of Schwartz (In Vitro 14 (1978), 966 - 980) and maintained in MDCB131 medium supplemented with 8% fetal calf serum (FCS), penicillin (100 lU/ml) and streptomycin (100 µg/ml) at 5% CO2. Human umbilical vein endothelial cells (HUE), an immortalized human umbilical vein endothelial cell line (ATCC CRL-1730) were cultured under the same conditions. Madin Darby canine kidney epithelial cells (MDCK; ATCC CLL-34) were grown in Dulbecco's Modified Eagle's Medium (DMEM) containing 10% FCS, penicillin and streptomycin.

CC[C@H](C)[C@H](NC(=O)OCc1ccccc1)C(=O)N[C@@H](CCC(=O)OC(C)(C)C)C(=O)N[C@@H](C)C(=O)N[C@H](C=O)CC(C)C [PSI, carbobenzoxy-L-isoleucyl-y-t-butyl-L-glutamyl-L-alanyl-L-leucinal] (Cbz-IE(OtBu)AL-aldehyde)
%CAMs with non-perfused areas ([1]; 0.31 µg/disc, methylcellulose disc on CAM for 48 h): 0(0/10) %
%CAMs with non-perfused areas ([1]; 1.0 µg/disc, methylcellulose disc on CAM for 48 h): 56.3 (18/32) %
%CAMs with non-perfused areas ([1]; 3.1 µg/disc, methylcellulose disc on CAM for 48 h): 85.7 (12/14) %
densities of the capillary plexus and first order vessels (corrosion casts) ([1]; CAM area directly under the disc): rarified
TUNEL labeling of cell nuclei in CAM sections ([1]; methylcellulose disc on CAM for 48 h, cells in close contact with the disc): Intense labeling
induction of apoptosis (nuclear morphology) (HUE cells): Induction of apoptosis
